Assay results from ChEMBL document CHEMBL4334497, “Synthesis and Pharmacological Characterization of 2-(2,6-Dichlorophenyl)-1-((1S,3R)-5-(3-hydroxy-3-methylbutyl)-3-(hydroxymethyl)-1-methyl-3,4-dihydroisoquinolin-2(1H)-yl)ethan-1-one (LY3154207), a Potent, Subtype Selective, and Orally Available Positive Allosteric Modulator of the Human Dopamine …” (J Med Chem, 2019).
pEC50: −log10 of the molar value. In brackets after ≈: the same amount, converted by molar mass. Activity calls are given as the source filed them. No cut-off for these calls is given here.

Tests used:
[1] = Solubility in fed state simulated intestinal fluids; assay type: physicochemical
[2] = Solubility in fasted state simulated intestinal fluids; assay type: physicochemical
[3] = Solubility of the compound in pH 6.0 buffer by high throughput solubility assay; assay type: physicochemical
[4] = Unbound intrinsic clearance in human liver microsomes; assay type: ADME, Microsome
[5] = Unbound intrinsic clearance in mouse liver microsomes; assay type: ADME, Microsome
[6] = target: D(1A) dopamine receptor (Homo sapiens, UniProt P21728); experiment: Positive allosteric modulator activity at human D1 receptor stably expressed in HEK293 cells assessed as potentiation of EC20 dopamine-induced cAMP accumulation incubated for 60 mins by HTRF assay; assay type: functional, cell-based
D(1A) dopamine receptor, sequence (P21728 whole entry): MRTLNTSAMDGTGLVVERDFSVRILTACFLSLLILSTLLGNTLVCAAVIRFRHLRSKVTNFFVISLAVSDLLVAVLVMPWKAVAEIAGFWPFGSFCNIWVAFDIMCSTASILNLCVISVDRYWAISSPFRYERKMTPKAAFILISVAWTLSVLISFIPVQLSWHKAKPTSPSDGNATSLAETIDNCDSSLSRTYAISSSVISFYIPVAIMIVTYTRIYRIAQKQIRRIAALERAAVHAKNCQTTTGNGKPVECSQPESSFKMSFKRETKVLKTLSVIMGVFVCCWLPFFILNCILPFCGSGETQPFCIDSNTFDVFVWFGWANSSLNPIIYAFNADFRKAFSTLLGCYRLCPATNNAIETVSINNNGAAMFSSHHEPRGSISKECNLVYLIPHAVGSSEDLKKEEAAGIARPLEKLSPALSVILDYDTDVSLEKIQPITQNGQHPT

[7] = test system: Mus musculus; experiment: Induction of locomotor activity in human D1 receptor knock-in habituated transgenic mouse assessed as increase in total ambulations at 10 mg/kg, sc measured from 60 to 90 mins after daily dosing on day 2 to 4 by photocell beam monitoring based method relative to control; assay type: functional, organism-based
[8] = test system: Mus musculus; experiment: Induction of locomotor activity in human D1 receptor knock-in habituated transgenic mouse assessed as increase in total ambulations at 10 mg/kg, sc measured from 60 to 90 mins after daily dosing on day 1 by photocell beam monitoring based method relative to control; assay type: functional, organism-based

Compound `C[C@H]1c2cccc(CCC(C)(C)O)c2C[C@H](CO)N1C(=O)Cc1c(Cl)cccc1Cl` (stereo in doubt; form 2) [MEVIDALEN] has a solubility ([1]; simulated gi fluid) of 2 µg/mL (≈ 4.44 µM) and a solubility ([2]; simulated gi fluid) of 2 µg/mL (≈ 4.44 µM).

For `C[C@H]1c2cccc(CC(C)(C)O)c2C[C@H](CO)N1C(=O)Cc1c(Cl)cccc1Cl`, the solubility [3] was 156 µg/mL (≈ 357 µM), the CL free [4] was 31 mL/min/kg and the CL free [5] was 779 mL/min/kg. For the same compound, the pEC50 [6] was 7.12.

Work on `C[C@H]1c2cccc(CCC(C)(C)O)c2C[C@H](CO)N1C(=O)Cc1c(Cl)cccc1Cl.O=C(O)c1ccc(O)cc1` [MEVIDALEN HYDROXYBENZOATE] yielded a solubility ([1]; fed state simulated intestinal fluid, read-out: solubility) of 697 µg/mL and a solubility ([2]; fasted state simulated intestinal fluid, read-out: solubility) of 206 µg/mL.

For `NC[C@@H]1O[C@H](C23CC4CC(CC(C4)C2)C3)Cc2c1ccc(O)c2O`, the Activity [7] was “inactive” and the Activity [8] was “Active”.
